Experimental findings from US5981517A, “Androstene derivatives” (priority 1997, dated 1999) are described below.

The subject of test [1] is forearm of a human volunteer. The test can be described thus: Human vasoconstriction test. The format is in vivo. The following applies: 10 mM. On the procedure:
Test compounds (10 mM) were dissolved in ethanol/propylene glycol (9/1) solution, and 50 μL of the mixtures were applied to circular patches, 8 mm in diameter. After ethanol evaporation, the patches were applied to the forearm of a human volunteer, and covered with a water impervious film for 3 hours. The intensity of vasoconstriction was judged 1, 8, 17 and 24 hours after the patches were removed.
The grading scale for the vasoconstriction activity was as follows: 0, normal skin; 1, slight pallor of indistinct outline; 2, pallor with at least two corners outlined; 3, even pallor with a clear outline of the application sites; 4, very intense pallor.

The subject of test [2] is forearms of a human volunteer. The test can be described thus: Further human vasoconstriction testing, Method 1. The following applies: 10 mM. The format is in vivo. On the procedure:
The mixtures, in 50 μL amounts, were applied to circular patches (8 mm diameter). After evaporation of ethanol, the patches were applied to the forearms of a human volunteer, and covered with a water impervious film for 3 hr. The intensity of vasoconstriction (scale 0-4) was judged at various time intervals after removal of the patches. The grading scale was as follows: 0, normal skin; 1, slight pallor of indistinct outline; 2, pallor with at least two corners outlined; 3, even pallor with a clear outline of the application sites; 4, very intense pallor. The skin tests (2-4 tests on each compound) were performed on the same person.

The target in test [3] is T1, rat lung glucocorticoid receptor (Rattus norvegicus, UniProt P06536).
T1 construct: Immediately after resection of the lungs, the tissue was frozen in ice; The cytosol was prepared; from tissue; host or cells: lung cytosol of adrenalectomized male Sprague-Dawley rats
T1 sequence (P06536 1-795): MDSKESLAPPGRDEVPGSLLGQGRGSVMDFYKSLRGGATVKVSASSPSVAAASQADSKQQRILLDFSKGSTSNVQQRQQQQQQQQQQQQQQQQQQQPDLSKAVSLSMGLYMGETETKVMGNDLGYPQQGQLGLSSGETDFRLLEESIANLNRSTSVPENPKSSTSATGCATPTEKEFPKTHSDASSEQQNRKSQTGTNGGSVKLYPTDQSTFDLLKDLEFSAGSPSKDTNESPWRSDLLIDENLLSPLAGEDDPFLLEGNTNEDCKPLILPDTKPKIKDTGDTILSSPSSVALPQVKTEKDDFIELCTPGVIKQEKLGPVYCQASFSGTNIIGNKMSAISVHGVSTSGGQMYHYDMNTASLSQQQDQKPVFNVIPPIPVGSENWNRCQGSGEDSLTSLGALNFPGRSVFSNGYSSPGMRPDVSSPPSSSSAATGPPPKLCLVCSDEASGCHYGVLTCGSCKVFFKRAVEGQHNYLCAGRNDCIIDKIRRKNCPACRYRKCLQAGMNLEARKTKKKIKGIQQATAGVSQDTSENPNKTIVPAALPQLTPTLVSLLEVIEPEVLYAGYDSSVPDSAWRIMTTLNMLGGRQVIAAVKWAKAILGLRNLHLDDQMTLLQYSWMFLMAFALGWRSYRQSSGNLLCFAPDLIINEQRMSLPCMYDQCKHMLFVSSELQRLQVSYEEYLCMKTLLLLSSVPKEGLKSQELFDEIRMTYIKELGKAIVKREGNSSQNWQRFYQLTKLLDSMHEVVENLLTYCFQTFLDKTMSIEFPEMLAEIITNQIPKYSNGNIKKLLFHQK
The test can be described thus: Receptor binding studies ([3H]triamcinolone acetonide displacement). The following applies: for Relative binding affinity (RBA): with respect to dexamethasone (RBA = 100); for RBA: further receptor binding studies (Table X), dexamethasone = 100, * mean ± SE of 3-5 results. Here is the method:
Male Sprague-Dawley rats, each weighing 150 to 200 g, were used 6 days after adrenalectomy. Rats were sacrificed by decapitation. Immediately after resection of the lungs, the tissue was frozen in ice. […] Portions (5 ml) of the cytosol were frozen in liquid nitrogen and stored at -80° C.
The cytosol was thawed in a water bath and diluted with 1 part of incubation buffer containing a 15 mM concentration of diisopropyl fluorophosphate. […] After a 2 hour incubation period at room temperature (24° C.), the unbound steroid was removed by addition of a 2% suspension of activated charcoal in incubation buffer (400 μL). The mixture was incubated for 5 minutes at room temperature and then was centrifuged at about 10,000 g for 3 minutes in the microcentrifuge. The radioactivity (cpm) in the supernatant (400 μL) was determined by liquid scintillation counting.
The data is fitted to the following logistic function:
B=T-T * C^N /(C^N +IC50^N)+NS,
where B=CPM in the presence of competitor, T=CPM in the absence of competitor, C=competitor concentration, N=Hill slope factor, and NS=cpm under non-specific binding conditions.
For the representative compound of the invention B, receptor binding affinity was investigated with and without Δ^1 -cortienic acid in the incubation solution to study the effect of Δ^1 -cortienic acid on the receptor binding.
Further studies to evaluate the relative receptor binding affinities of compounds of the invention, other compounds of formula (VII) hereinabove and well-known anti-inflammatory steroids were undertaken, using the methods described in the RECEPTOR BINDING STUDIES set forth above. […] For comparison purposes, the following compounds having formula (VII) above were also tested: […]

For test [4], the system named is forearm of a human volunteer. Put plainly: Further human vasoconstriction testing, Method 2. Type of test: in vivo. More on the design: key: +: "positive" (pallor could be observed); -: "negative" (pallor could not be detected). Here is the method: The mixtures, in 20 μL amounts, were applied to circular patches (1/4 inch diameter). The patches were applied to the forearm of a human volunteer, and covered with a water impervious film for 3 hr. Vasoconstriction activity was judged by the appearance of pallor at various time points after the patches were removed. Tests were performed on the same person and the results were obtained from 2-4 observations.
In TABLE XIV above, "-" means a negative result was obtained. In other tables herein, "-" means not tested.
In TABLE XIV above, the results of a simpler method of judging vasoconstriction activity was used in which only "positive" (pallor could be observed) or "negative" (pallor could not be detected) results were recorded.

Where [5] appears, read: rat lung cytosol, 10 nM [3H]triamcinolone acetonide, with Δ1-cortienic acid, 2 h, 24° C., read-out: IC50.

Usually IC50 stands for the concentration that gives 50% inhibition.

Where two headings read alike, the source gives them in different places. A value given as a limit tells only on which side of the number the result lay.

As for `C[C@@H]1C[C@H]2[C@@H]3CCC4=CC(=O)C=C[C@]4(C)[C@@]3(F)[C@@H](O)C[C@]2(C)[C@@]1(O)C(=O)CO` [Dexamethasone, reference compound], the Vasoconstriction activity in test [1] (1 hour after patch removal) is reported as 0; in test [1] (8 hours after patch removal) it was 1; in test [1] (17 hours after patch removal), 1; in test [1] (24 hours after patch removal) it was 1; in test [2] (3 Hours), 1; in test [2] (20 Hours), 1.

`COC(=O)[C@@]1(O)CC[C@H]2[C@@H]3CCC4=CC(=O)C=C[C@]4(C)[C@H]3[C@@H](O)C[C@@]21C` [E] gave an IC50 in test [3] greater than 2 µM. Further, in test [3] (with Δ1-cortienic acid), the “Relative binding affinity (RBA)” value is less than 1.

For the compound `CCOC(=O)[C@@]1(O)CC[C@H]2[C@@H]3CCC4=CC(=O)C=C[C@]4(C)[C@H]3[C@@H](O)C[C@@]21C` [F], the IC50 in test [3] (setting [5]) is greater than 2 µM. For the same compound, the “Relative binding affinity (RBA)” value in test [3] (with Δ1-cortienic acid) is listed as less than 1.

The compound `CC(=O)[C@@]1(O)CC[C@H]2[C@@H]3C[C@H](C)C4=CC(=O)C=C[C@]4(C)[C@@]3(F)[C@@H](O)C[C@@]21C` [Fluorometholone, reference compound] gave an RBA in test [3] of 136 ± 5.

As for `CC(C)OC(=O)[C@@]1(O)CC[C@H]2[C@@H]3CCC4=CC(=O)C=C[C@]4(C)[C@H]3[C@@H](O)C[C@@]21C` [G], in test [3] (setting [5]), the IC50 is greater than 2 µM. Besides, the “Relative binding affinity (RBA)” value in test [3] (with Δ1-cortienic acid) was less than 1.

On to `C[C@]12C=CC(=O)C=C1CC[C@@H]1[C@@H]2[C@@H](O)C[C@@]2(C)[C@H]1CC[C@]2(OC(=O)C(Cl)Cl)C(=O)O` [H, 17α-dichloroacetoxy-11β-hydroxyandrosta-1,4-dien-3-one-17β-carboxylic acid], for which the IC50 in test [3] (setting [5]) is greater than 2 µM. The “Relative binding affinity (RBA)” value in test [3] (with Δ1-cortienic acid) is on record as less than 2.

Turning to `C[C@@H]1C[C@H]2[C@@H]3CCC4=CC(=O)C=C[C@]4(C)[C@@]3(F)[C@@H](O)C[C@]2(C)[C@@]1(OC(=O)C(Cl)Cl)C(=O)OCCl` [K, chloromethyl 17α-dichloroacetoxy-9α-fluoro-11β-hydroxy-16α-methylandrosta-1,4-dien-3-one-17β-carboxylate], the Vasoconstriction activity result is recorded as “-” in test [4] (4 Hours, 0.01 mM); “-” in test [4] (4 Hours, 0.05 mM); “-” in test [4] (4 Hours, 0.1 mM); “-” in test [4] (4 Hours, 0.5 mM); “+” in test [4] (4 Hours, 1 mM); “+” in test [4] (4 Hours, 5 mM). Further, the Vasoconstriction activity result in test [4] (8 Hours, 0.01 mM) is reported as “-”; in test [4] (8 Hours, 0.05 mM), “-”; in test [4] (8 Hours, 0.1 mM), “+”; in test [4] (8 Hours, 0.5 mM), “+”; in test [4] (8 Hours, 1 mM) it was “+”; in test [4] (8 Hours, 5 mM), “+”. Also, the Vasoconstriction activity result in test [4] (10-22 hours, 0.01 mM) is listed as “-”; in test [4] (10-22 hours, 0.05 mM), “-”; in test [4] (10-22 hours, 0.1 mM), “-”; in test [4] (10-22 hours, 0.5 mM), “+”; in test [4] (10-22 hours, 1 mM), “+”; in test [4] (10-22 hours, 5 mM) it was “+”. Besides, the Vasoconstriction activity entry in test [4] (24 Hours, 0.01 mM) was “-”; in test [4] (24 Hours, 0.05 mM) it was “-”; in test [4] (24 Hours, 0.1 mM), “-”; in test [4] (24 Hours, 0.5 mM), “+”; in test [4] (24 Hours, 1 mM), “+”; in test [4] (24 Hours, 5 mM), “+”.

Regarding `COC(=O)[C@@]1(OC(=O)CCl)[C@H](C)C[C@H]2[C@@H]3CCC4=CC(=O)C=C[C@]4(C)[C@@]3(F)[C@@H](O)C[C@@]21C` [S], the Vasoconstriction activity result is on record as “-” in test [4] (4 Hours, 0.01 mM); “-” in test [4] (4 Hours, 0.05 mM); “-” in test [4] (4 Hours, 0.1 mM); “-” in test [4] (4 Hours, 0.5 mM); “-” in test [4] (4 Hours, 1 mM); “-” in test [4] (4 Hours, 5 mM).

Take `CCOC(=O)[C@@]1(OC(=O)CCl)[C@H](C)C[C@H]2[C@@H]3CCC4=CC(=O)C=C[C@]4(C)[C@@]3(F)[C@@H](O)C[C@@]21C` [T]: the Vasoconstriction activity entry is “-” in test [4] (4 Hours, 0.01 mM); “-” in test [4] (4 Hours, 0.05 mM); “-” in test [4] (4 Hours, 0.1 mM); “-” in test [4] (4 Hours, 0.5 mM); “-” in test [4] (4 Hours, 1 mM); “-” in test [4] (4 Hours, 5 mM).

In test [3], `CC1(C)O[C@@H]2C[C@H]3[C@@H]4CCC5=CC(=O)C=C[C@]5(C)[C@@]4(F)[C@@H](O)C[C@]3(C)[C@]2(C(=O)CO)O1` [Triamcinolone acetonide, reference compound] gave an IC50 of 0.013 µM and an RBA of 630. Moreover, the “Relative binding affinity (RBA)” value in test [3] (with Δ1-cortienic acid) was found to be 628.
